Source: paper PMC8459971, “Evaluation of the hepatotoxicity of the novel GPR40 (FFAR1) agonist CPL207280 in the rat and monkey” (PLoS ONE, 2021)
Where “and” joins values, the source holds several entries; their conditions need not be identical. Equal entries are not always repeated. Where two headings read alike, the source gives them in different places.

Columns and labels:
[1] = Stability in cryopreserved hepatocytes, dog; assay type: in vitro ADME; details: for Compound Remaining (% of 0 min): Hepatocyte Stability Dog, single replicates
Experimental: The final incubation volume was 500 μL. Two control compounds (verapamil and donepezil) were included for each microsomal species, along with the appropriate vehicle control. The reactions were terminated by transferring 50 μL of incubate to 100 μL methanol containing an internal standard (metoprolol) at appropriate time points (0, 10, 20, 40, 60, and 120 min for the test compound and 0, 5, 10, 20, 40, and 60 min for the control compounds). The termination plates were centrifuged at 4000 x g at 4°C for 30 min to precipitate the protein. The supernatants were then collected for analysis, and LC-MS/MS was used for detection purposes. The system consisted of an Acquity™ Binary Solvent Manager, Acquity™ 4-position heated column manager, 2777 Ultra High Pressure Autosampler, and a Xevo-TQ MS triple quadrupole mass spectrometer (Waters Ltd., Herts, UK). This process was carried out twice.

[2] = tested on: HepaRG spheroids; test: HepaRG 3D spheroids, cell and mitochondrial health markers, 14 days; details: for AC50: Homo sapiens, HepaRG
Experimental: Hepatic spheroids were formed by seeding HepaRG™ cells into round-bottom ultra-low adhesion 96-well spheroid plates (Corning®) in 3D liver media with 0.5% DMSO, 100 U/mL penicillin, and 100 mg/L streptomycin. Cells were incubated at 37°C and 5% CO2 until spheroid formation and then compound-treated. The test compound was diluted in the vehicle, and serial dilutions were made in a 0.5% vehicle in HepaRG™ induction media. […] L-buthionine sulfoximine was used as positive control for GSH content, whereas rotenone was simultaneously used as a positive control for mitochondrial dysfunction and ATP content. At the end of the incubation period, the cells were loaded with the relevant dye for each cell health marker: DNA structure–Hoescht, GSH content–mBCL, ROS formation–DHE, mitochondrial dysfunction–MitoTracker, and cellular ATP content–CellTiter-Glo®, Promega. The plate was then scanned using an automated confocal fluorescent cellular imager, ArrayScan® XTI (Thermo Scientific Cellomics) at 37°C and 5% CO2. Further, the cellular ATP content was measured using CellTiter-Glo® (Promega, USA).

[3] = cryopreserved hepatocytes (suspension), Dog (Beagle) hepatocytes, mean n = 2

SMILES: CC#C[C@@H](CC(=O)O)c1ccc(OCC(C)=C(C)C)cc1 [CPL207280]
- Compound Remaining (% of 0 min) ([1]; 0 min): 100 % of 0 min
- Compound Remaining (% of 0 min) ([1]; 10 min): 93.0 % of 0 min and 92.9 % of 0 min
- Compound Remaining (% of 0 min) ([1]; 20 min): 83.6 % of 0 min and 74.9 % of 0 min
- Compound Remaining (% of 0 min) ([1]; 40 min): 73.0 % of 0 min and 74.7 % of 0 min
- Compound Remaining (% of 0 min) ([1]; 60 min): 61.1 % of 0 min and 62.8 % of 0 min
- Compound Remaining (% of 0 min) ([1]; 120 min): 65.2 % of 0 min and 60.1 % of 0 min
- half-life at 3 μM [1, 3]: 3 h
- microsomal CLint at 3 μM [1, 3]: 7.76 µL/min/mg
- Cellular ATP Mean Plotted Value ([2]; CONC 0.0457 uM, TIMEPOINT 336): 0.883
- DNA structure Mean Plotted Value ([2]; CONC 0.0457 uM, TIMEPOINT 336): 1.26
- Glutathione content Mean Plotted Value ([2]; CONC 0.0457 uM, TIMEPOINT 336): 0.866
- Mitochondrial mass Mean Plotted Value ([2]; CONC 0.0457 uM, TIMEPOINT 336): 0.982
- Mitochondrial membrane potential Mean Plotted Value ([2]; CONC 0.0457 uM, TIMEPOINT 336): 1.25
- Oxidative stress Mean Plotted Value ([2]; CONC 0.0457 uM, TIMEPOINT 336): 1.15
- Spheroid count Mean Plotted Value ([2]; CONC 0.0457 uM, TIMEPOINT 336): 1
- Spheroid size Mean Plotted Value ([2]; CONC 0.0457 uM, TIMEPOINT 336): 0.924
- Cellular ATP Mean Plotted Value ([2]; CONC 0.137 uM, TIMEPOINT 336): 1.01
- DNA structure Mean Plotted Value ([2]; CONC 0.137 uM, TIMEPOINT 336): 1.14
- Glutathione content Mean Plotted Value ([2]; CONC 0.137 uM, TIMEPOINT 336): 1.11
- Mitochondrial mass Mean Plotted Value ([2]; CONC 0.137 uM, TIMEPOINT 336): 0.911
- Mitochondrial membrane potential Mean Plotted Value ([2]; CONC 0.137 uM, TIMEPOINT 336): 0.948
- Oxidative stress Mean Plotted Value ([2]; CONC 0.137 uM, TIMEPOINT 336): 1.02
- Spheroid count Mean Plotted Value ([2]; CONC 0.137 uM, TIMEPOINT 336): 1
- Spheroid size Mean Plotted Value ([2]; CONC 0.137 uM, TIMEPOINT 336): 0.943
- Cellular ATP Mean Plotted Value ([2]; CONC 0.412 uM, TIMEPOINT 336): 1.03
- DNA structure Mean Plotted Value ([2]; CONC 0.412 uM, TIMEPOINT 336): 1.12
- Glutathione content Mean Plotted Value ([2]; CONC 0.412 uM, TIMEPOINT 336): 1.09
- Mitochondrial mass Mean Plotted Value ([2]; CONC 0.412 uM, TIMEPOINT 336): 1
- Mitochondrial membrane potential Mean Plotted Value ([2]; CONC 0.412 uM, TIMEPOINT 336): 0.994
- Oxidative stress Mean Plotted Value ([2]; CONC 0.412 uM, TIMEPOINT 336): 1.02
- Spheroid count Mean Plotted Value ([2]; CONC 0.412 uM, TIMEPOINT 336): 1
- Spheroid size Mean Plotted Value ([2]; CONC 0.412 uM, TIMEPOINT 336): 0.942
- Cellular ATP Mean Plotted Value ([2]; CONC 3.7 uM, TIMEPOINT 336): 0.907
- DNA structure Mean Plotted Value ([2]; CONC 3.7 uM, TIMEPOINT 336): 0.692
- Glutathione content Mean Plotted Value ([2]; CONC 3.7 uM, TIMEPOINT 336): 0.924
- Mitochondrial mass Mean Plotted Value ([2]; CONC 3.7 uM, TIMEPOINT 336): 0.944
- Mitochondrial membrane potential Mean Plotted Value ([2]; CONC 3.7 uM, TIMEPOINT 336): 0.773
- Oxidative stress Mean Plotted Value ([2]; CONC 3.7 uM, TIMEPOINT 336): 1.02
- Spheroid count Mean Plotted Value ([2]; CONC 3.7 uM, TIMEPOINT 336): 1
- Spheroid size Mean Plotted Value ([2]; CONC 3.7 uM, TIMEPOINT 336): 0.935
- Cellular ATP Mean Plotted Value ([2]; CONC 33.3 uM, TIMEPOINT 336): 0.845
- DNA structure Mean Plotted Value ([2]; CONC 33.3 uM, TIMEPOINT 336): 0.889
- Glutathione content Mean Plotted Value ([2]; CONC 33.3 uM, TIMEPOINT 336): 0.907
- Mitochondrial mass Mean Plotted Value ([2]; CONC 33.3 uM, TIMEPOINT 336): 0.989
- Mitochondrial membrane potential Mean Plotted Value ([2]; CONC 33.3 uM, TIMEPOINT 336): 0.908
- Oxidative stress Mean Plotted Value ([2]; CONC 33.3 uM, TIMEPOINT 336): 1.13
- Spheroid count Mean Plotted Value ([2]; CONC 33.3 uM, TIMEPOINT 336): 1
- Spheroid size Mean Plotted Value ([2]; CONC 33.3 uM, TIMEPOINT 336): 0.953
- Cellular ATP Mean Plotted Value ([2]; CONC 100 uM, TIMEPOINT 336): 0.491
- DNA structure Mean Plotted Value ([2]; CONC 100 uM, TIMEPOINT 336): 0.692
- Glutathione content Mean Plotted Value ([2]; CONC 100 uM, TIMEPOINT 336): 0.767
- Mitochondrial mass Mean Plotted Value ([2]; CONC 100 uM, TIMEPOINT 336): 0.865
- Mitochondrial membrane potential Mean Plotted Value ([2]; CONC 100 uM, TIMEPOINT 336): 0.94
- Oxidative stress Mean Plotted Value ([2]; CONC 100 uM, TIMEPOINT 336): 1.13
- Spheroid count Mean Plotted Value ([2]; CONC 100 uM, TIMEPOINT 336): 1
- Spheroid size Mean Plotted Value ([2]; CONC 100 uM, TIMEPOINT 336): 0.861
- Cellular ATP MEC ([2]; HepaRG spheroid, TIMEPOINT 336): 24.8 (NS) uM
- Cellular ATP MR (% @ concentration) ([2]; HepaRG spheroid, TIMEPOINT 336, at the concentration (uM) given): 48%
- Cellular ATP MR ([2]; HepaRG spheroid, TIMEPOINT 336, plotted value at the concentration given): 0.491
- AC50 ([2]; 336 h, read-out: Estimated AC50 (95% CI), Cellular ATP): > 100 µM
- AC50 ([2]; 336 h, read-out: Estimated AC50 (95% CI), DNA structure): > 100 µM
- AC50 ([2]; 336 h, read-out: Estimated AC50 (95% CI), Glutathione content): > 100 µM
- AC50 ([2]; 336 h, read-out: Estimated AC50 (95% CI), Mitochondrial mass): > 100 µM
- AC50 ([2]; 336 h, read-out: Estimated AC50 (95% CI), Mitochondrial membrane potential): > 100 µM
- AC50 ([2]; 336 h, read-out: Estimated AC50 (95% CI), Oxidative stress): > 100 µM
- AC50 ([2]; 336 h, read-out: Estimated AC50 (95% CI), Spheroid count): > 100 µM
- AC50 ([2]; 336 h, read-out: Estimated AC50 (95% CI), Spheroid size): > 100 µM
- AC50 ([2]; read-out: DNA structure AC50): > 100 µM
- AC50 ([2]; read-out: Glutathione content AC50): > 100 µM
- AC50 ([2]; read-out: Mitochondrial mass AC50): > 100 µM
- AC50 ([2]; read-out: Mitochondrial membrane potential AC50): > 100 µM
- AC50 ([2]; read-out: Oxidative stress AC50): > 100 µM
- AC50 ([2]; read-out: Spheroid count AC50): > 100 µM
- AC50 ([2]; read-out: Spheroid size AC50): > 100 µM
- Mitochondria Injury ([2]; summary comparison CPL207280 vs TAK-875): <
